Reference: patent publication US6806230B1, “Pyrimidine derivatives and herbicides containing them” (Kumiai Chemical Industry Co., Ltd., priority 1999, dated 2004)

The molecules below were run on barnyard grass (Eo) (assay: Test Example 1: herbicidal effects by flooded paddy field treatment). Settings: dose 100 g active ingredient per 10 ares, examined on the 21st day after treatment, standards of Table 44.
Type: in vivo
Design: herbicidal effects, Eo (barnyard grass):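 0-5 growth inhibition grade; 5 = over 90%; 4 = 70-90%; 3 = 50-70%; 2 = 30-50%; 1 = 10-30%; 0 = under 10%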
Procedure, shortened: (§1)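 Seeds sown in puddled paddy soil and flooded to 3 cm. Next day, a water-diluted wettable powder was dripped onto the water surface at 100 g active ingredient per 10 ares. Plants were grown in a greenhouse, and herbicidal effect was scored against a rating standard 21 days after treatment.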

Row | Compound | herbicidal effects, Eo (barnyard grass)
1 | C#CCN(C(=O)Cc1ccc(C)cc1)C(CCC)c1cncnc1CC (racemic) [1-609] | 5
2 | Cc1ccc(CC(=O)N(C)C(c2cncnc2C(F)(F)F)C2(C)CC2)cc1 (racemic) [1-412] | 5
3 | CC(C)C(c1cncnc1C#N)N(C)C(=O)Cc1ccc(Cl)cc1 (racemic) [1-506] | 5
4 | CCOC(=O)c1ncncc1C(C(C)C)N(C)C(=O)C(C)c1ccc(Cl)cc1 (single isomer, unassigned) [1-594] | 5
5 | C#CCN(C(=O)Cc1ccccc1)C(CCC)c1cncnc1CC (racemic) [1-606] | 5
6 | COCC(c1cncnc1C(C)C)N(C)C(=O)Cc1ccc(Cl)cc1 (racemic) [1-584] | 5
7 | CC(C)c1ncncc1C(C(C)C)N(C)C(=O)Cc1ccc(Cl)s1 (racemic) [2-71] | 5
8 | CCc1ncncc1C(C(C)C)N(C)C(=O)N(C)c1ccc(C)cc1 (racemic) [1-541] | 5
9 | CC(=O)c1ncncc1C(C(C)C)N(C)C(=O)Cc1ccc(C)cc1 (racemic) [1-529] | 5
10 | C#CCN(C(=O)Cc1cccc(F)c1)C(c1cncnc1C(F)(F)F)C(C)C (racemic) [1-569] | 5
11 | CC(C)C(c1cncnc1C(F)(F)F)N(C)C(=O)Cc1ccc(F)c(F)c1F (racemic) [1-417] | 5
12 | COc1ccccc1C(c1cncnc1C(F)(F)F)N(C)C(=O)Cc1ccc(F)cc1 (racemic) [1-489] | 5

Each molecule was assayed on monochoria (Mo) in the same assay as above. Settings: dose 100 g active ingredient per 10 ares, examined on the 21st day after treatment, standards of Table 44.
Type: in vivo
Design: herbicidal effects, Mo (monochoria):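 0-5 growth inhibition grade; 5 = over 90%; 4 = 70-90%; 3 = 50-70%; 2 = 30-50%; 1 = 10-30%; 0 = under 10%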
Procedure, shortened: as §1

Row | Compound | herbicidal effects, Mo (monochoria)
13 | C#CCN(C(=O)Cc1ccc(C)cc1)C(CCC)c1cncnc1CC (racemic) [1-609] | 5
14 | Cc1ccc(CC(=O)N(C)C(c2cncnc2C(F)(F)F)C2(C)CC2)cc1 (racemic) [1-412] | 5
15 | CC(C)C(c1cncnc1C#N)N(C)C(=O)Cc1ccc(Cl)cc1 (racemic) [1-506] | 5
16 | CCOC(=O)c1ncncc1C(C(C)C)N(C)C(=O)C(C)c1ccc(Cl)cc1 (single isomer, unassigned) [1-594] | 5
17 | C#CCN(C(=O)Cc1ccccc1)C(CCC)c1cncnc1CC (racemic) [1-606] | 5
18 | COCC(c1cncnc1C(C)C)N(C)C(=O)Cc1ccc(Cl)cc1 (racemic) [1-584] | 5
19 | CC(C)c1ncncc1C(C(C)C)N(C)C(=O)Cc1ccc(Cl)s1 (racemic) [2-71] | 5
20 | CCc1ncncc1C(C(C)C)N(C)C(=O)N(C)c1ccc(C)cc1 (racemic) [1-541] | 5
21 | CC(=O)c1ncncc1C(C(C)C)N(C)C(=O)Cc1ccc(C)cc1 (racemic) [1-529] | 5
22 | C#CCN(C(=O)Cc1cccc(F)c1)C(c1cncnc1C(F)(F)F)C(C)C (racemic) [1-569] | 5
23 | CC(C)C(c1cncnc1C(F)(F)F)N(C)C(=O)Cc1ccc(F)c(F)c1F (racemic) [1-417] | 5
24 | COc1ccccc1C(c1cncnc1C(F)(F)F)N(C)C(=O)Cc1ccc(F)cc1 (racemic) [1-489] | 5

Each molecule was assayed on barnyard grass (Ec) (assay: Test Example 2: herbicidal effects by upland soil treatment). Settings: dose 100 g active ingredient per 10 ares, examined on the 21st day after treatment.
Type: in vivo
Design: scale not given here
Procedure, shortened: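 Pre-emergence test: barnyard grass and green foxtail sown in upland soil, then soil surface sprayed with wettable-powder formulation at 100 g active ingredient per 10 ares (100 l per 10 ares). Grown in greenhouse; herbicidal effect scored on a rating scale 21 days after treatment.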

Row | Compound | Ec (herbicidal effects, index)
25 | C#CCN(C(=O)Cc1ccc(C)cc1)C(CCC)c1cncnc1CC (racemic) [1-609] | 5
26 | Cc1ccc(CC(=O)N(C)C(c2cncnc2C(F)(F)F)C2(C)CC2)cc1 (racemic) [1-412] | 5
27 | CC(C)C(c1cncnc1C#N)N(C)C(=O)Cc1ccc(Cl)cc1 (racemic) [1-506] | 5
28 | CCOC(=O)c1ncncc1C(C(C)C)N(C)C(=O)C(C)c1ccc(Cl)cc1 (single isomer, unassigned) [1-594] | 5
29 | C#CCN(C(=O)Cc1ccccc1)C(CCC)c1cncnc1CC (racemic) [1-606] | 5
30 | COCC(c1cncnc1C(C)C)N(C)C(=O)Cc1ccc(Cl)cc1 (racemic) [1-584] | 5
31 | CC(C)c1ncncc1C(C(C)C)N(C)C(=O)Cc1ccc(Cl)s1 (racemic) [2-71] | 5
32 | CCc1ncncc1C(C(C)C)N(C)C(=O)N(C)c1ccc(C)cc1 (racemic) [1-541] | 5
33 | CC(=O)c1ncncc1C(C(C)C)N(C)C(=O)Cc1ccc(C)cc1 (racemic) [1-529] | 5
34 | C#CCN(C(=O)Cc1cccc(F)c1)C(c1cncnc1C(F)(F)F)C(C)C (racemic) [1-569] | 5
35 | CC(C)C(c1cncnc1C(F)(F)F)N(C)C(=O)Cc1ccc(F)c(F)c1F (racemic) [1-417] | 5
36 | COc1ccccc1C(c1cncnc1C(F)(F)F)N(C)C(=O)Cc1ccc(F)cc1 (racemic) [1-489] | 5

What follows are molecules tested on barnyard grass (Ec) (assay: Test Example 3: herbicidal effects by foliage treatment in upland field). Settings: dose 100 g active ingredient per 10 ares, examined on the 14th day after treatment.
Type: in vivo
Design: scale not given here
Procedure, shortened: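 Barnyard grass and green foxtail were grown in upland soil for 2 weeks in a greenhouse. A water-diluted wettable powder was sprayed over the foliage at 100 l per 10 ares, giving 100 g active ingredient per 10 ares. Herbicidal effect was scored on day 14 after treatment.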

Row | Compound | Ec (herbicidal effects, index)
37 | C#CCN(C(=O)Cc1ccc(C)cc1)C(CCC)c1cncnc1CC (racemic) [1-609] | 4
38 | Cc1ccc(CC(=O)N(C)C(c2cncnc2C(F)(F)F)C2(C)CC2)cc1 (racemic) [1-412] | 4
39 | CC(C)C(c1cncnc1C#N)N(C)C(=O)Cc1ccc(Cl)cc1 (racemic) [1-506] | 4
40 | CCOC(=O)c1ncncc1C(C(C)C)N(C)C(=O)C(C)c1ccc(Cl)cc1 (single isomer, unassigned) [1-594] | 5
41 | C#CCN(C(=O)Cc1ccccc1)C(CCC)c1cncnc1CC (racemic) [1-606] | 4
42 | COCC(c1cncnc1C(C)C)N(C)C(=O)Cc1ccc(Cl)cc1 (racemic) [1-584] | 4
43 | CC(C)c1ncncc1C(C(C)C)N(C)C(=O)Cc1ccc(Cl)s1 (racemic) [2-71] | 5
44 | CCc1ncncc1C(C(C)C)N(C)C(=O)N(C)c1ccc(C)cc1 (racemic) [1-541] | 4
45 | CC(=O)c1ncncc1C(C(C)C)N(C)C(=O)Cc1ccc(C)cc1 (racemic) [1-529] | 5
46 | C#CCN(C(=O)Cc1cccc(F)c1)C(c1cncnc1C(F)(F)F)C(C)C (racemic) [1-569] | 5
47 | CC(C)C(c1cncnc1C(F)(F)F)N(C)C(=O)Cc1ccc(F)c(F)c1F (racemic) [1-417] | 4
48 | COc1ccccc1C(c1cncnc1C(F)(F)F)N(C)C(=O)Cc1ccc(F)cc1 (racemic) [1-489] | 4

Each molecule was assayed on barnyard grass (Eo) (assay: Test Example 4: selectivity for a crop plant by flooded paddy field treatment). Settings: barnyard grass, dose 25 gai/10a, 21st day after treatment, index per Table 44.
Type: in vivo
Design: scale not given here
Procedure, shortened: (§2)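 Paddled paddy soil in pots sown with barnyard grass and monochoria, with second-leaf-stage rice transplanted, under 3 cm of water. Next day a diluted wettable powder was dripped onto the water at 25 g active ingredient per 10 ares; effects scored on a rating scale 21 days later in a greenhouse.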

Row | Compound | Eo (herbicidal effect index)
49 | C#CCN(C(=O)Cc1ccc(C)cc1)C(CCC)c1cncnc1CC (racemic) [1-609] | 5
50 | Cc1ccc(CC(=O)N(C)C(c2cncnc2C(F)(F)F)C2(C)CC2)cc1 (racemic) [1-412] | 5
51 | CC(C)C(c1cncnc1C#N)N(C)C(=O)Cc1ccc(Cl)cc1 (racemic) [1-506] | 5
52 | CCOC(=O)c1ncncc1C(C(C)C)N(C)C(=O)C(C)c1ccc(Cl)cc1 (single isomer, unassigned) [1-594] | 5
53 | C#CCN(C(=O)Cc1ccccc1)C(CCC)c1cncnc1CC (racemic) [1-606] | 5
54 | COCC(c1cncnc1C(C)C)N(C)C(=O)Cc1ccc(Cl)cc1 (racemic) [1-584] | 5
55 | CC(C)c1ncncc1C(C(C)C)N(C)C(=O)Cc1ccc(Cl)s1 (racemic) [2-71] | 5
56 | CCc1ncncc1C(C(C)C)N(C)C(=O)N(C)c1ccc(C)cc1 (racemic) [1-541] | 5
57 | CC(=O)c1ncncc1C(C(C)C)N(C)C(=O)Cc1ccc(C)cc1 (racemic) [1-529] | 5
58 | C#CCN(C(=O)Cc1cccc(F)c1)C(c1cncnc1C(F)(F)F)C(C)C (racemic) [1-569] | 5
59 | CC(C)C(c1cncnc1C(F)(F)F)N(C)C(=O)Cc1ccc(F)c(F)c1F (racemic) [1-417] | 5
60 | COc1ccccc1C(c1cncnc1C(F)(F)F)N(C)C(=O)Cc1ccc(F)cc1 (racemic) [1-489] | 5

Each molecule was assayed on monochoria (Mo) in the same assay as above. Settings: monochoria, dose 25 gai/10a, 21st day after treatment, index per Table 44.
Type: in vivo
Design: scale not given here
Procedure, shortened: as §2

Row | Compound | Mo (herbicidal effect index)
61 | C#CCN(C(=O)Cc1ccc(C)cc1)C(CCC)c1cncnc1CC (racemic) [1-609] | 5
62 | Cc1ccc(CC(=O)N(C)C(c2cncnc2C(F)(F)F)C2(C)CC2)cc1 (racemic) [1-412] | 5
63 | CC(C)C(c1cncnc1C#N)N(C)C(=O)Cc1ccc(Cl)cc1 (racemic) [1-506] | 5
64 | CCOC(=O)c1ncncc1C(C(C)C)N(C)C(=O)C(C)c1ccc(Cl)cc1 (single isomer, unassigned) [1-594] | 5
65 | C#CCN(C(=O)Cc1ccccc1)C(CCC)c1cncnc1CC (racemic) [1-606] | 5
66 | COCC(c1cncnc1C(C)C)N(C)C(=O)Cc1ccc(Cl)cc1 (racemic) [1-584] | 5
67 | CC(C)c1ncncc1C(C(C)C)N(C)C(=O)Cc1ccc(Cl)s1 (racemic) [2-71] | 5
68 | CCc1ncncc1C(C(C)C)N(C)C(=O)N(C)c1ccc(C)cc1 (racemic) [1-541] | 5
69 | CC(=O)c1ncncc1C(C(C)C)N(C)C(=O)Cc1ccc(C)cc1 (racemic) [1-529] | 5
70 | C#CCN(C(=O)Cc1cccc(F)c1)C(c1cncnc1C(F)(F)F)C(C)C (racemic) [1-569] | 5
71 | CC(C)C(c1cncnc1C(F)(F)F)N(C)C(=O)Cc1ccc(F)c(F)c1F (racemic) [1-417] | 5
72 | COc1ccccc1C(c1cncnc1C(F)(F)F)N(C)C(=O)Cc1ccc(F)cc1 (racemic) [1-489] | 5

Each molecule was assayed on rice (Or) in the same assay as above. Settings: rice transplanted at second leaf stage, dose 25 gai/10a, 21st day after treatment, index per Table 44.
Type: in vivo
Design: scale not given here
Procedure, shortened: as §2

Row | Compound | Or (herbicidal effect index on crop)
73 | C#CCN(C(=O)Cc1ccc(C)cc1)C(CCC)c1cncnc1CC (racemic) [1-609] | 1
74 | Cc1ccc(CC(=O)N(C)C(c2cncnc2C(F)(F)F)C2(C)CC2)cc1 (racemic) [1-412] | 1
75 | CC(C)C(c1cncnc1C#N)N(C)C(=O)Cc1ccc(Cl)cc1 (racemic) [1-506] | 1
76 | CCOC(=O)c1ncncc1C(C(C)C)N(C)C(=O)C(C)c1ccc(Cl)cc1 (single isomer, unassigned) [1-594] | 1
77 | C#CCN(C(=O)Cc1ccccc1)C(CCC)c1cncnc1CC (racemic) [1-606] | 1
78 | COCC(c1cncnc1C(C)C)N(C)C(=O)Cc1ccc(Cl)cc1 (racemic) [1-584] | 1
79 | CC(C)c1ncncc1C(C(C)C)N(C)C(=O)Cc1ccc(Cl)s1 (racemic) [2-71] | 1
80 | CCc1ncncc1C(C(C)C)N(C)C(=O)N(C)c1ccc(C)cc1 (racemic) [1-541] | 1
81 | CC(=O)c1ncncc1C(C(C)C)N(C)C(=O)Cc1ccc(C)cc1 (racemic) [1-529] | 1
82 | C#CCN(C(=O)Cc1cccc(F)c1)C(c1cncnc1C(F)(F)F)C(C)C (racemic) [1-569] | 1
83 | CC(C)C(c1cncnc1C(F)(F)F)N(C)C(=O)Cc1ccc(F)c(F)c1F (racemic) [1-417] | 1
84 | COc1ccccc1C(c1cncnc1C(F)(F)F)N(C)C(=O)Cc1ccc(F)cc1 (racemic) [1-489] | 1
